# In PubChem BioAssay AID493003 (Sanford-Burnham Center for Chemical Genomics, 2010):
# Activity calls are given as the source filed them. The rule behind the calls is not given here.
# System: S. cerevisiae tim10-1 mutant growth, luminescence
# Test: tim10-1 yeast growth inhibition potency – luminescence, S. cerevisiae, uHTS hits, dose response (AID 493003);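 note: yeast growth measured after about 22 hours at 25 °C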
row,Structure (SMILES),IC50
1,O=c1c2ccccc2[se]n1-c1ccccc1,10 µM
2,COc1ccc(C/C(=N\OC(C)=O)c2ccc(OC)cc2)cc1,25.7 µM
3,O=C(c1ccc2c3n(nc2c1)-c1ccccc1CO3)N1CCCCC1,13.4 µM
4,CCCCNC(=S)Nc1ccc(C(F)(F)F)cc1,18.3 µM
5,O=C1CC(N2CCCCCC2)C(=O)N1c1ccc(F)cc1 (stereo not drawn),13.9 µM
6,O=C1CC(SCc2nc3ccccc3[nH]2)C(=O)N1c1ccc(F)c(Cl)c1 (stereo not drawn),32.1 µM
7,Cc1ccc(NC(=S)Nc2ccc(Cl)c(Cl)c2)c(OC(F)F)c1,14 µM
8,O=c1cc(-c2ccc(C3CCCCC3)cc2)[nH][nH]1,29.5 µM
9,Oc1c(Cl)cc(Cl)cc1CNc1ccc(Br)cn1,33.2 µM
10,O=C(Nc1ccc(N2CCN(C(=O)c3ccccc3)CC2)c(Cl)c1)c1ccc(Br)o1,41.8 µM
11,Clc1cccc(CN2CCc3c([nH]c4ccccc34)C2)c1,30.7 µM
12,O=S(=O)(Nc1cccc2cccnc12)c1ccc(S(=O)(=O)N2CCCC2)cc1,41.2 µM
13,Cc1noc(NS(=O)(=O)c2ccc(NC(=O)Nc3ccc(Cl)c(Cl)c3)cc2)c1C,43.1 µM
14,S=C(NCCc1ccccc1)Nc1ccc(Nc2ccccc2)cc1,24.7 µM
15,O=C(CN1CCN(S(=O)(=O)c2ccc(Cl)cc2)CC1)Nc1ccc2c(c1)CCC2,25.3 µM
16,Brc1ccc(-c2cn3c(n2)CCc2ccc4cccnc4c2-3)cc1,> 100 µM (inactive)
17,CCCc1ccc(-c2c(C)sc(N)c2C#N)cc1,19.2 µM
18,COc1ccc(OC)c(N=c2ssnc2Cl)c1,21 µM
19,COc1cccc(Nc2ncccc2C(=O)Nc2ccccc2)c1,31.7 µM
20,O=C(Nc1ccc(N2CCN(C(=O)c3cccs3)CC2)cc1)c1cccc(F)c1,40.5 µM
21,Cc1cc(Nc2cccc(F)c2)nc(-c2ccccc2O)n1,64.2 µM
22,Cc1nn(C)c(C)c1NC(=O)Nc1ccc(Cl)c(Cl)c1,22.4 µM
23,COc1ccc(/C(N)=N/OC(=O)CC2CCCCC2)cc1OC,24.2 µM
24,Cc1ccc(/C(N)=N/OC(=O)c2ccc3c(c2)OCO3)cc1,9.34 µM

row,Structure (SMILES),IC50
1,N/C(=N\OC(=O)c1ccc(F)cc1)c1ccc(Br)cc1,6.61 µM
2,C=CCc1ccc(O)c(-c2cc(CC=C)ccc2O)c1,68.3 µM
3,COc1ccc2oc(=O)c(-c3csc(Nc4cccc(O)c4)n3)cc2c1,21.9 µM
4,Cn1c2ccccc2c(=O)c2ccc(C#CC3(N)CCCCC3)cc21,27.1 µM
5,Cc1ccccc1NC(=S)N(Cc1ccccn1)Cc1ccccc1Cl,20.9 µM
6,Clc1cccc(C2Nc3cccc4cccc(c34)N2)c1Cl,25.7 µM
7,Fc1cccc(-c2cc3nc4c(c(NCc5ccco5)n3n2)CCCC4)c1,33.7 µM
8,CCOC(=O)c1c(OCC)[nH]c2c1cc(O)c1ccccc12,17.9 µM
9,N/C(=N\OC(=O)CCCc1ccccc1)c1ccccc1,19.9 µM
10,CC[C@@H]1CC=C[C@H]2[C@H]1C(=O)N(Cc1ccccc1)[C@H]2c1ccoc1,7.61 µM
11,COc1ccc(C(=O)O/N=C(\N)c2ccc(Br)cc2)cc1,11.9 µM
12,CC(C)(C)NC(=O)NC(=O)COC(=O)CCC1CCCCC1,69 µM
13,O=C(c1cccs1)c1c[nH]cc1-c1ccccc1,> 100 µM (inactive)
14,Cc1cccc(C(=O)O/N=C2\CCCc3ccccc32)c1,> 100 µM (inactive)
15,CC(NC(=O)c1cccc(Cl)c1)C1CC2CCC1C2 (stereo not drawn),42.3 µM
16,CC1(C)CC2CC(C)(CN2C(=S)NC(=O)c2ccccc2Cl)C1 (stereo not drawn),59.9 µM
17,Cc1ccccc1/C=C/C(=O)c1ccc([N+](=O)[O-])o1,3.76 µM
18,CCCCNC(=S)N=Nc1c(O)[nH]c2ccccc12,9.9 µM
19,COc1cccc(-c2nn3c(-c4ccccn4)nnc3s2)c1,33.4 µM
20,COc1ccc2nc(/N=C(\N)NC(=O)Nc3ccccc3)nc(C)c2c1,47.3 µM
21,Cc1cccc(NC(=O)c2ccc([N+](=O)[O-])s2)n1,6.52 µM
22,Cn1c(/C=C/c2ccc([N+](=O)[O-])o2)nc2ccccc2c1=O,7.3 µM
23,Cn1ncc2c(Nc3cccc(Cl)c3)nc(Nc3cccc(Cl)c3)nc21,24.4 µM
24,Cc1ccc2nc(N3CCN(Cc4nnnn4Cc4ccccc4)CC3)c(C#N)cc2c1,81.3 µM

row,Structure (SMILES),IC50
1,Cc1ccc2nc(C)c(C(=O)N/N=C/c3cccc([N+](=O)[O-])c3)cc2c1,25.8 µM
2,Cc1ccccc1OCC(=O)Nc1ccc(S(=O)(=O)N2CCCC2)cc1,15.6 µM
3,COc1ccc(-c2cn3c(C)c(C(=O)N4CCc5ccccc5C4)sc3n2)cc1,40 µM
4,O=[N+]([O-])c1cc(/C=N/O)ccc1Oc1ccccc1Cl,33.9 µM
5,C=CCNC(=S)NNc1nc2c(c(=O)[nH]1)C1(CCCC1)Cc1ccccc1-2,27.7 µM
6,CC(C)(C)OC(=O)N[C@@H](Cc1ccccc1)c1nnc(S(=O)(=O)Cc2cccc(F)c2)o1,5.87 µM
7,COc1cccc(/C=C2\N=C(C3CCCCC3)OC2=O)c1OC,36.3 µM
8,OCCN1CCN(CCCN2c3ccccc3Sc3ccc(C(F)(F)F)cc32)CC1,31.3 µM
9,c1ccc(Nc2cccc(Nc3ccccc3)c2)cc1,11.2 µM
10,N/C(CCS(=O)(=O)c1ccc(Cl)cc1)=N\OC(=O)c1ccccc1C(F)(F)F,37.5 µM
11,CC(C)NC(=S)N/N=C1\CCCCc2ccccc21,13.9 µM
12,O=C(CN1CCN(S(=O)(=O)c2ccc(Br)cc2)CC1)N/N=C/c1ccc(Br)s1,43 µM
13,Nc1cccc(Nc2nc(OC(C(F)(F)F)C(F)(F)F)nc(OC(C(F)(F)F)C(F)(F)F)n2)c1,39.6 µM
14,O=[N+]([O-])c1ccc(Sc2cccc3cccnc23)c([N+](=O)[O-])c1,78.7 µM
15,COc1ccc(-n2c(CNc3ccc(C)cc3)nnc2SCc2ccccc2)cc1,26.4 µM
16,O=C1c2cccc3cccc(c23)C(=O)N1CCN1CCN(CC(O)COc2ccc3ccccc3c2)CC1 (stereo not drawn),19.3 µM
17,COc1ccc(NS(=O)(=O)c2ccc3oc4ccccc4c3c2)cn1,28.3 µM
18,Cc1cc(Nc2ccccc2Cl)nc(-c2ccccc2O)n1,33.2 µM
19,CC(=O)c1ccc(NC(=S)NC(C)c2ccc(Cl)cc2Cl)cc1 (stereo not drawn),13.2 µM
20,COc1ccc(Cl)cc1NC(=O)CN(C)C(=O)C12CC3CC(CC(Cl)(C3)C1)C2,9.65 µM
21,Cc1c(Cl)c([N+](=O)[O-])nn1Cc1ccc(C(=O)Nc2ccc(Cl)cn2)o1,47.6 µM
22,O=C(Nc1ccc2c(c1)OCO2)c1cccc2c1C(=O)N(Cc1cccnc1)C2,41.2 µM
23,CNC(=O)c1ccsc1NC(=O)c1ccc(Cl)s1,64.7 µM
24,N#C/C(=C\c1c[nH]c2ccc(Br)cc12)c1ccccn1,33.4 µM

row,Structure (SMILES),IC50
1,CC(Oc1ccc(Cl)cc1Cl)C(=O)NC1=NN(c2ccccc2)C(=O)C1 (stereo not drawn),15.2 µM
2,O=C(Nc1ccc(OCC(F)(F)C(F)F)c(C(F)(F)F)c1)c1ccc(Cl)cc1,52.8 µM
3,O=C(Oc1ccc(C(=S)N2CCOCC2)cc1)c1ccccc1[N+](=O)[O-],25.4 µM
4,CCOC(=O)c1cnc2ccc(OC)cc2c1Nc1ccc2c(c1)OCCO2,79.3 µM
5,O=c1c2[nH]c3ccc(F)cc3c2nc2n1CCS2,27.8 µM
6,Cc1cccc(NC(=S)N/N=C2/CCCCc3ccccc32)c1,9.98 µM
7,Cc1ccc(/C(N)=N/OC(=O)N2CCOCC2)cc1,24.5 µM
8,COc1ccc(C(=O)C(CN2CCCC2)c2ccccc2)cc1 (stereo not drawn),19 µM
9,Cc1onc(-c2ccc3c(c2)OCO3)c1-c1ccc2[nH]ccc2c1,14.3 µM
10,O=C(c1ccc2nc(N3CCOCC3)sc2c1)N1CCC(Cc2ccccc2)CC1,16.6 µM
11,Cc1ccc(-c2cc(-c3cccc(F)c3)n[nH]2)c(O)c1,40.4 µM
12,Oc1c(Cl)cc(Cl)cc1/C=C/c1ccc2cccc(O)c2n1,42.6 µM
13,O=C1C2C(c3ccccc3)CC=CC2[C@H](c2ccc3ccccc3c2)N1Cc1ccccc1 (stereo partly drawn),22.9 µM
14,Cc1cc(C)cc(NC(=O)c2cc(S(=O)(=O)NCc3ccco3)ccc2F)c1,32.3 µM
15,O=C(CSCC(=O)N1CCCCC1)Nc1nc(-c2ccc(Cl)s2)cs1,37.9 µM
16,c1ccc(Nc2cccc(Nc3ccccc3)n2)cc1,14.2 µM
17,COc1cc(OC)c(C(=O)O/N=C(\N)c2ccc(C)cc2)cc1OC,14.5 µM
18,S=c1[nH]nc(Nc2ccc(Cl)cc2)s1,20.8 µM
19,C=CCc1cccc(CNc2nc3ccccc3n2C(C)C)c1O,61.1 µM
20,CCCOc1ccc(CN(CCC#N)C(=S)NC(=O)c2ccccc2)cc1,10.9 µM
21,Cc1cc(C)n(CC(O)Cn2c3ccc(Br)cc3c3cc(Br)ccc32)c(=O)n1 (stereo not drawn),19.3 µM
22,CSc1ccc(S(=O)(=O)NCc2ccccc2Cl)cc1,22.4 µM
23,S=c1[nH]nc(-c2ccco2)n1/N=C/C=C/c1ccccc1,42.7 µM
24,O=C(Cc1ccc(Cl)c(Cl)c1)Nc1ccc(SC(F)F)cc1,46.7 µM

row,Structure (SMILES),IC50
1,CN(C)CCCN1c2ccccc2CCc2ccc(Cl)cc21,37.8 µM
2,N#Cc1ccccc1Cn1c(=O)n(C2CCCC2)c(=O)c2ccccc21,25.4 µM
3,C=CCNc1nc(-c2ccccn2)nnc1-c1ccccc1,29.3 µM
4,CCCOc1ccc2c(c1)C(=NN=C(N)N)c1cc(OCCC)ccc1-2,19.8 µM
5,O=C(CCNc1ccc(Cc2ccncc2)cc1)c1cccc([N+](=O)[O-])c1,49.2 µM
6,CCc1nn(-c2ccccc2)c(=S)c2ccccc12,22.8 µM
7,Clc1ccc(-c2nc3cnccn3c2Nc2ccc3c(c2)OCO3)cc1,29.9 µM
8,Cc1nn2c(c1-c1ccc(Cl)cc1)N=C(c1ccco1)CC2c1ccccc1 (stereo not drawn),23.2 µM
9,Nc1c(C(=O)Nc2ccccc2)c2nc3ccccc3nc2n1CCCN1CCOCC1,8.41 µM
10,CC(=O)SC1CC(=O)N(c2ccc(C(C)(C)C)cc2)C1=O (stereo not drawn),38.8 µM
11,Cc1cc(NC(=O)c2ccccc2Oc2ccccc2)no1,60.3 µM
12,CCCCN(CC)CCCNC(=O)c1cc2cc3ccc(OC)cc3nc2o1,17.2 µM
13,O=C(CSc1nc2cc(Cl)ccc2s1)c1ccco1,50.6 µM
14,O=C(NC(=S)NNC(=O)c1ccccc1[N+](=O)[O-])c1ccc(Br)cc1,10.1 µM
15,COc1cccc(/C=N/n2c(C3CCCCC3)n[nH]c2=S)c1O,32.3 µM
16,CSc1ccc(/C=C/C(=O)c2ccc(NC(=O)C(C)C)cc2)cc1,20.4 µM
17,Cn1c2ccccc2c(=O)c2ccc(C#CC3(O)CCCCC3)cc21,24.5 µM
18,CCCCn1nc(NC(=O)c2cccs2)c2cc3ccccc3nc21,73.9 µM
19,S=C(NCCCc1ccccc1)Nc1ccc(Cl)cc1,11.4 µM
20,COc1ccc(C)cc1NC(=O)NCCC1=CCCCC1,32.2 µM
21,Cc1nc(CN2CCN(S(=O)(=O)c3c(Cl)cc(Br)cc3Cl)CC2)cs1,18.6 µM
22,C=CCNC(=S)NNc1nc2c(c(=O)[nH]1)C1(CCCCC1)Cc1ccccc1-2,40.3 µM
